Entries after “also recorded” stand apart in the source; their conditions may differ.
How the values were obtained:
[1] = tested on: S. maltophilia; assay: microbe, parasite or virus in culture; format: cell-based, Stenotrophomonas maltophilia; conditions: inhibitor at 2 mg/L; for ability to potentiate β-lactams / reverse resistance (in words): β-lactam and strain named in the value
Description: S. maltophilia clinical isolates were K279a, a well characterised isolate from Bristol, UK, or were obtained from the SENTRY antimicrobial resistance survey, as previously reported. […] All growth media were from Oxoid. Chemicals were from Sigma, unless otherwise stated.
Susceptibility to β-lactams in bacterial isolates was determined using the CLSI microtitre minimum inhibitory concentration (MIC) methodology with Muller-Hinton Broth using 96 well plates (Corning, Costar). The MIC was determined as the lowest concentration of β-lactam required to entirely suppress growth. Inhibitor concentrations were kept constant at 2 mg/L or 10 mg/L in all assays. Interpretation of susceptibility/resistance was by reference to CLSI clinical breakpoints for S. maltophilia (ceftazidime) and for Pseudomonas aeruginosa (for aztreonam and meropenem, since no S. maltophilia breakpoints are available).

[2] = tested on: L1 β-lactamase production in S. maltophilia K279a; assay: L1 β-lactamase induction by β-lactamase inhibitors (meropenem hydrolysis in cell extracts); format: cell-based; conditions: 50 μg.mL^−1 inducer
Description: L1 activity was measured from the cell extracts in a 96-well plate reader by determining meropenem hydrolysis (100 μM) at λ=300 nm. Protein concentration was determined by using BioRad protein assay dye reagent. Specific activity was calculated by using the extinction coefficient of 9600 AU/M/cm and a pathlength correction for the microplate ([…]). Data presented are means +/−SEM, n=3.
Cultures were grown overnight using nutrient broth and used to inoculate (1:100 dilution) 10 ml nutrient broth cultures in sealed 30 ml universal bottles. Cultures were incubated for 2 h with shaking at 37° C. before test inducers were added, or not, and culture was continued for 2 h. Cells were pelleted by centrifugation (4,000×g, 10 min) and pellets treated with 100 μL of BugBuster (Ambion), pipetting up and down a few times before rocking for 10 min at room temperature. […] Protein concentration was determined using the BioRad protein assay reagent concentrate according to the manufacturer's instructions. L1 β-lactamase activity was determined using an Omega Fluostar (BMG Biotech) using meropenem as substrate in half-area 96 well UV-translucent plates (Greiner UV-Star. Bio-one) with 200 μl of 100 μM meropenem solution in assay buffer (60 mM Na2HPO4.7H2O pH 7.0, 40 mM NaH2PO4.H2O, 10 mM KCI, 1 mM MgSO4.7H2O, 100 μM ZnCl2) plus 10 μL of cell extract. […]

[3] = molecular target: L2 (Stenotrophomonas maltophilia (Pseudomonas maltophilia) (Xanthomonas maltophilia), UniProt P96465); assay: Inhibition of purified L2, fluorogenic substrate FC5 as reporter
Sequence of L2 (P96465 36-303 limits assumed): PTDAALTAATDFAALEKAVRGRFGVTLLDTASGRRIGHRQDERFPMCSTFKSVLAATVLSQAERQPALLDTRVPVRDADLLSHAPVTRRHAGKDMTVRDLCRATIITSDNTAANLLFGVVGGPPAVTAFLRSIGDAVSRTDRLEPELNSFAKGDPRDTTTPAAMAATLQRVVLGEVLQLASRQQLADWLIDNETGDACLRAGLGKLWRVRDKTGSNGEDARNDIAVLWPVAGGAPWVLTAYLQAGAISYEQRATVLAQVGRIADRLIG
Description: Steady state kinetic data were analysed by curve fitting to the Michaeilis-Menten equation using Prism software.

[4] = IC50, purified L2, FC5 substrate

SMILES	MIC of aztreonam in the presence of the β-lactamase inhibitor ([1]; CI-20) [µg/mL]	MIC of ceftazidime in the presence of the β-lactamase inhibitor ([1]; CI-20) [µg/mL]	MIC of meropenem in the presence of the β-lactamase inhibitor ([1]; CI-20) [µg/mL]	MIC of aztreonam in the presence of the β-lactamase inhibitor ([1]; CI-29) [µg/mL]	MIC of ceftazidime in the presence of the β-lactamase inhibitor ([1]; CI-29) [µg/mL]	MIC of meropenem in the presence of the β-lactamase inhibitor ([1]; CI-29) [µg/mL]	MIC of aztreonam in the presence of the β-lactamase inhibitor ([1]; CI-31) [µg/mL]	MIC of ceftazidime in the presence of the β-lactamase inhibitor ([1]; CI-31) [µg/mL]	MIC of meropenem in the presence of the β-lactamase inhibitor ([1]; CI-31) [µg/mL]	MIC of aztreonam in the presence of the β-lactamase inhibitor ([1]; K279a) [µg/mL]	MIC of ceftazidime in the presence of the β-lactamase inhibitor ([1]; K279a) [µg/mL]	MIC of meropenem in the presence of the β-lactamase inhibitor ([1]; K279a) [µg/mL]	MIC of aztreonam in the presence of the β-lactamase inhibitor ([1]; K AMI 32) [µg/mL]	MIC of ceftazidime in the presence of the β-lactamase inhibitor ([1]; K AMI 32) [µg/mL]	MIC of meropenem in the presence of the β-lactamase inhibitor ([1]; K AMI 32) [µg/mL]	MIC of aztreonam in the presence of the β-lactamase inhibitor ([1]; K CAZ 10) [µg/mL]	MIC of ceftazidime in the presence of the β-lactamase inhibitor ([1]; K CAZ 10) [µg/mL]	MIC of meropenem in the presence of the β-lactamase inhibitor ([1]; K CAZ 10) [µg/mL]	MIC of aztreonam in the presence of the β-lactamase inhibitor ([1]; K MOX 8) [µg/mL]	MIC of ceftazidime in the presence of the β-lactamase inhibitor ([1]; K MOX 8) [µg/mL]	other results
NC(=O)[C@@H]1CC[C@@H]2CN1C(=O)N2OS(=O)(=O)O [Avibactam]	2	4	64	1	1	32	≤ 4	128	256	1	1	16	0.5	0.5	16	1	8	64	0.5	0.5	MIC of aztreonam in the presence of the β-lactamase inhibitor ([1]; CI-31, listed as AVI): 4 µg/mL; MIC of meropenem in the presence of the β-lactamase inhibitor ([1]; K MOX 8): 16 µg/mL; ability to potentiate β-lactams / reverse resistance (in words) [1]: reduce ceftazidime MICs against K279a; induction of L1 production (in words) [2]: neither avibactam nor 2 induces L1 to any measurable extent; IC50 [3, 4]: 14.4 nM
O=C(O)[C@H]1/C(=C/CO)O[C@@H]2CC(=O)N21 [Clavulanic acid]	4	16	32	1	4	16	2	128	256	1	4	32	0.5	1	8	0.5	8	8	0.25	1	MIC of meropenem in the presence of the β-lactamase inhibitor ([1]; K MOX 8): 8 µg/mL; ability to potentiate β-lactams / reverse resistance (in words) [1]: does not reduce the MIC of ceftazidime against S. maltophilia K279a; also recorded: reduces the aztreonam MIC against K279a; induction of L1 production (in words) [2]: induced L1 production; IC50 [3, 4]: 22.3 nM; IC50 ([3]; pIC50, purified L2, FC5 substrate): 38.9 nM

From patent US11980631B2, “β-lactamase inhibitors” (priority 2017, dated 2024)
